Laboratory results from US20090304746A1 (priority 1993, published 2009).
No end group written: not given here.

Tests used:
[1] = molecular target: HLA-B*3501 (Homo sapiens, UniProt P01889, A329T/A93T/A95T/C349S/D201E/D98Y/E176V/E187L/E204Q/E69T/I218V/K202T/L119I/Q94N/R155S/R180L/S121R/S35A/S48A/T118I/V127L/V306I/V36M/Y140S/Y91F); assay: HLA class I binding assay, B*3501
[2] = molecular target: HLA-B*5301 (Homo sapiens, UniProt P01889, A329T/A93T/A95T/C349S/D201E/D98Y/E176V/E187L/E204Q/E69T/G107R/I218V/K202T/L105A/L119I/N104I/Q94N/R106L/R155S/R180L/S101N/S121R/S35A/S48A/T118I/V127L/V306I/V36M/Y140S/Y91F); assay: HLA class I binding assay, B*5301
[3] = molecular target: T1, DRB1*0301 (DR3) (Homo sapiens, UniProt P01903+P01911, A100K/A102G/A103R/A169T/F55Y/I96L/K41T/L162R/M171V/P40S/Q125H/Q178H/Q39Y/R42S/S66N/T106N/T262R/W38E/Y61H); assay: HLA class II binding assay, DRB1*0301 (DR3); conditions: DR3 binding affinity, DR3 motif peptides
T1 construct: endogenous in cells; host or cells: MAT

[4] = test system: PBMC from HCV-infected patients; assay: CTL recall: recognition in vitro by PBMC from HCV-infected patients, 51Cr release; format: cell-based, human
[5] = A3-supertype binders, positive responses over total number examined
[6] = A3-supertype binders, positive responses over total number of contacts examined
[7] = A3-supertype binders, positive responses over total number of patients examined
[8] = A3-supertype binders, sum over all groups, positive over total examined
[9] = sum over the four human data sets

Molecule	IC50 [1] [µM]	IC50 [2] [µM]	IC50 [3] [µM]	Immunogenicity Human, Chisari [4, 5]	Immunogenicity Human, Pape [4, 5]	Immunogenicity Human, Barnaba; contacts [4, 6]	Immunogenicity Human, Barnaba; patients [4, 7]	Immunogenicity Human, overall [4, 8]	Immunogenicity Human, Barnaba; patients ([4]; responders/tested)	Immunogenicity Human, Chisari ([4]; responders/tested)	Immunogenicity Human, Pape ([4]; responders/tested)	Immunogenicity Human, Barnaba; contacts ([4]; responders/tested, contacts)	Immunogenicity Human, overall [4, 9]
CC[C@H](C)[C@H](N)C(=O)N1CCC[C@H]1C(=O)N[C@@H](Cc1ccccc1)C(=O)N[C@@H](Cc1ccc(O)cc1)C(=O)NCC(=O)N[C@@H](CCCCN)C(=O)N[C@@H](C)C(=O)N[C@H](C(=O)O)[C@@H](C)CC [29.0035/1260.04]	> 30	> 30											
CSCC[C@H](NC(=O)[C@H](CC(C)C)NC(=O)[C@H](C)NC(=O)[C@H](CC(=O)O)NC(=O)[C@@H](NC(=O)[C@H](C)NC(=O)[C@@H](NC(=O)[C@@H](NC(=O)[C@@H](NC(=O)[C@@H](N)C(C)C)C(C)C)C(C)C)C(C)C)[C@@H](C)O)C(=O)N[C@H](C(=O)NCC(=O)N[C@@H](Cc1ccc(O)cc1)C(=O)N[C@H](C(=O)NCC(=O)O)[C@@H](C)O)[C@@H](C)O [CH35.0106]			≤ 1										
CC[C@H](C)[C@H](NC(=O)[C@@H](N)CC(C)C)C(=O)N[C@@H](Cc1ccccc1)C(=O)N[C@@H](CS)C(=O)N[C@@H](Cc1c[nH]cn1)C(=O)N[C@@H](CO)C(=O)N[C@@H](CCCCN)C(=O)N[C@@H](CCCCN)C(=O)N[C@@H](CCCCN)C(=O)O [Peptide 1.0123]				4/12	2/6	1/4	6/16	13/38	6/16	4/12	2/6	1/4	13/38
C[C@@H](O)[C@H](NC(=O)[C@@H](N)CCCCN)C(=O)N[C@@H](CO)C(=O)N[C@@H](CCC(=O)O)C(=O)N[C@@H](CCCNC(=N)N)C(=O)N[C@@H](CO)C(=O)N[C@@H](CCC(N)=O)C(=O)N1CCC[C@H]1C(=O)N[C@@H](CCCNC(=N)N)C(=O)O [Peptide 1.0952]				3/12	0/6	1/4	2/16	6/38	2/16	3/12	0/6	1/4	6/38
CC(C)C[C@H](NC(=O)[C@@H](N)CCC(N)=O)C(=O)N[C@@H](Cc1ccccc1)C(=O)N[C@H](C(=O)N[C@@H](Cc1ccccc1)C(=O)N[C@@H](CO)C(=O)N1CCC[C@H]1C(=O)N[C@@H](CCCNC(=N)N)C(=O)N[C@@H](CCCNC(=N)N)C(=O)O)[C@@H](C)O [Peptide 1.0955]				6/12	1/6	0/4	1/16	8/38	1/16	6/12	1/6	0/4	8/38
CC(C)C[C@H](NC(=O)[C@H](C)NC(=O)CNC(=O)[C@H](C)NC(=O)[C@@H](N)C(C)C)C(=O)N[C@H](C(=O)N[C@@H](C)C(=O)N[C@@H](Cc1ccccc1)C(=O)N[C@@H](CCCCN)C(=O)O)C(C)C [Peptide 24.0090]				6/12	0/4	1/4	4/16	11/38	4/16	6/12	0/4	1/4	11/38
CSCC[C@H](NC(=O)[C@H](CCCNC(=N)N)NC(=O)[C@H](C)NC(=O)[C@H](Cc1c[nH]c2ccccc12)NC(=O)[C@H](CC(C)C)NC(=O)[C@@H](NC(=O)[C@@H]1CCCN1C(=O)[C@H](C)N)[C@@H](C)O)C(=O)O [Peptide 29.0031]	> 30	> 30											
CC[C@H](C)[C@H](NC(=O)[C@H](CC(C)C)NC(=O)[C@H](CCCNC(=N)N)NC(=O)[C@H](C)NC(=O)[C@@H]1CCCN1C(=O)[C@@H](N)CCCCN)C(=O)N[C@H](C(=O)N[C@@H](Cc1ccccc1)C(=O)O)C(C)C [Peptide 29.0037]	> 30	> 30											
CC(C)C[C@H](NC(=O)[C@H](CCCNC(=N)N)NC(=O)[C@@H]1CCCN1C(=O)CNC(=O)[C@H](CCCNC(=N)N)NC(=O)[C@H](CCCNC(=N)N)NC(=O)[C@@H]1CCCN1C(=O)[C@@H](N)CC(C)C)C(=O)O [Peptide 29.0040]	> 30	> 30											
CC[C@H](C)[C@H](NC(=O)[C@H](Cc1ccc(O)cc1)NC(=O)[C@@H]1CCCN1C(=O)[C@@H](N)CC(C)C)C(=O)N[C@@H](CCC(=O)O)C(=O)N[C@@H](CCC(N)=O)C(=O)NCC(=O)N[C@@H](CCSC)C(=O)O [Peptide 29.0042]	> 30	> 30											
CC[C@H](C)[C@H](NC(=O)[C@H](CCSC)NC(=O)[C@H](CCCNC(=N)N)NC(=O)[C@H](C)NC(=O)[C@H](Cc1c[nH]c2ccccc12)NC(=O)[C@H](CC(C)C)NC(=O)[C@@H](NC(=O)[C@@H]1CCCN1C(=O)[C@H](C)N)[C@@H](C)O)C(=O)N[C@@H](CC(C)C)C(=O)N[C@@H](CCSC)C(=O)O [Peptide 29.0118]	> 30	> 30											
CC(C)C[C@H](NC(=O)[C@H](C)NC(=O)CNC(=O)[C@H](C)NC(=O)[C@@H](NC(=O)CN)C(C)C)C(=O)N[C@H](C(=O)N[C@@H](C)C(=O)N[C@@H](Cc1ccccc1)C(=O)N[C@@H](CCCCN)C(=O)O)C(C)C [Peptide 1073.10]				6/12	2/6	0/4	3/16	11/38	3/16	6/12	2/6	0/4	11/38
CC(C)C[C@H](NC(=O)[C@@H](N)CCCNC(=N)N)C(=O)NCC(=O)N[C@H](C(=O)N[C@@H](CCCNC(=N)N)C(=O)N[C@@H](C)C(=O)N[C@H](C(=O)N[C@@H](CCCNC(=N)N)C(=O)N[C@@H](CCCCN)C(=O)O)[C@@H](C)O)C(C)C [Peptide 1073.11]				7/12	1/6	1/4	4/16	13/38	4/16	7/12	1/6	1/4	13/38
CSCC[C@H](NC(=O)[C@@H](N)CCCNC(=N)N)C(=O)N[C@@H](Cc1ccc(O)cc1)C(=O)N[C@H](C(=O)NCC(=O)NCC(=O)N[C@H](C(=O)N[C@@H](CCC(=O)O)C(=O)N[C@@H](Cc1c[nH]cn1)C(=O)N[C@@H](CCCNC(=N)N)C(=O)O)C(C)C)C(C)C [Peptide 1073.13]				4/12	1/6	1/4	5/16	11/38	5/16	4/12	1/6	1/4	11/38
FPGCSFSIF [Peptide 1145.13]		0.0032											
